Patent US20260165988A1, “PHARMACEUTICAL COMPOSITION FOR PREVENTING OR TREATING HEARING LOSS COMPRISING AMMONIUM LACTATE AS ACTIVE INGREDIENT” (KOREA UNIVERSITY RESEARCH AND BUSINESS FOUNDATION, priority 2022, published 2026)

Test system: hair cells in the lateral line of zebrafish
Assay: Analysis of hair cells in zebrafish larvae: protection against gentamicin-induced hair cell damage
Type: in vivo
Description: Zebrafish larvae (Wild type, Brn3c: EGFP, etc.) were cultured in the breeding room of our research institute. Each larva was cultured in embryo medium (15 mM NaCl, 0.5 mM KCl, 1 mM CaCl2, 1 mM MgSO4, 0.15 mM KH2PO4, 0.05 mM […], and 0.7 mM NaHCO3).
Gentamicin, an ototoxicity-inducing substance, was administered to zebrafish 5 days after fertilization, and the concentration of […] (LC 50) that induces 50% damage to hair cells in the lateral line of zebrafish as well as the time were determined. In the study results, 50 μM gentamicin was chosen since approximately 50% of the hair cells were damaged when administered for 1 hour. The effect was observed when 10 μM, 100 μM, 500 μM, and 1000 μM ammonium lactate were co-administered with 50 μM gentamicin for 1 hour.
There were four sites in hair cells of zebrafish, including orbits (SO1 and SO2), ear (O1), and larynx (OC1), and the number of hair cells was analyzed using a microscope (fluorescence microscope, confocal microscope, etc.). The effects of candidate substances capable of suppressing damage to hair cells caused by gentamicin were compared and analyzed by administering the candidate substances to zebrafish larvae at different concentrations.
To verify the protective effect of ammonium lactate on hair cells in zebrafish, ammonium lactate and gentamicin were co-administered to zebrafish, and the viability of hair cells was compared with that of the control group.

Compound	hair cells damaged (50 μM gentamicin administered for 1 hour, zebrafish 5 days after fertilization)	decrease in the viability of hair cells (50 μM gentamicin only vs untreated control)	number of hair cells (50 μM gentamicin only, no ammonium lactate, untreated control 53)	viability of hair cells (trend) (10 μM, 100 μM, 500 μM and 1000 μM ammonium lactate co-administered with 50 μM gentamicin)	increase in the viability of hair cells (100 μM ammonium lactate + 50 μM gentamicin)	number of hair cells (100 μM ammonium lactate co-administered with 50 μM gentamicin for 1 hour, gentamicin only 26)	increase in the viability of hair cells (500 μM ammonium lactate + 50 μM gentamicin)	number of hair cells (500 μM ammonium lactate co-administered with 50 μM gentamicin for 1 hour, gentamicin only 26)	increase in the viability of hair cells (1000 μM ammonium lactate + 50 μM gentamicin)	number of hair cells (1000 μM ammonium lactate co-administered with 50 μM gentamicin for 1 hour, gentamicin only 26)	protective effect on hair cells (conclusion) (zebrafish, gentamicin-induced damage)
gentamicin [reference compound]	approximately 50%	50%	26	–	–	–	–	–	–	–	–
CC(O)C(=O)O.N (centres unmarked) [ammonium lactate]	–	–	–	increased in a concentration-dependent manner	approximately 10%	28	approximately 10%	29	≥ 60%	42	has a protective effect on hair cells
